Data reported in patent US11674172B2, “PIRNA-54265 detection kit used for early screening, diagnosis, curative efficacy monitoring and prognostic evaluation of colorectal cancer” (SUN YAT-SEN UNIVERSITY, priority 2018, dated 2023).

Test system: colorectal cancer cell lines with stably overexpressed or knockdown piR-54265
Assay: IC50 experiments with chemotherapy drugs on colorectal cancer cell lines with overexpressed or knockdown piR-54265
Format: cell-based
Settings: for cell chemosensitivity (change of IC50): cells after knocking down piR-54265, versus control; for chemoresistance of the colorectal cancer cells (change of IC50): cells overexpressing piR-54265, versus control
Text: IC50 experiments with the first-line colorectal cancer chemotherapy drugs 5-FU and L-OHP were respectively performed on colorectal cancer cell lines with stably overexpressed or knockdown piR-54265. Subcutaneous xenograft tumors in nude mice were established using the stable cell lines mentioned above, and when a tumor volume reached 250 mm^3, treatment of intraperitoneal injection with 5-FU or L-OHP was started, and the change of the tumor volume was periodically measured.

cell chemosensitivity (change of IC50)	chemoresistance of the colorectal cancer cells (change of IC50)	SMILES
improved	enhanced	O=c1[nH]cc(F)c(=O)[nH]1 [5-FU]
improved	enhanced	N[C@@H]1CCCC[C@H]1N.O=C([O-])C(=O)[O-].[Pt+2] [L-OHP]
